# Species on record: Rattus norvegicus
# Assay: Open TG-GATES - Regimen: Single
# Type: toxicity, organism-based, Sprague-Dawley
# Design: regimen Single, gender Male, age 6 weeks
# Conditions: in vivo, po, 25 mg/kg, route gavage, dose level Low; for APTT / Bas / Eos / Fbg / Hb / Ht / Lym / MCH / MCHC / MCV / Mono / Neu / PT / Plat / RBC / Ret / WBC: tissue Blood; for KIDNEY_L / KIDNEY_R / KIDNEY_TOTAL: tissue Kidney; for LIVER: tissue Liver; for A/G / ALP / ALT / AST / BUN / CRE / Ca / Cl / DBIL / GLC / IP / K / LDH / Na / PL / RALB / TBIL / TC / TG / TP / gamma-GTP: tissue Plasma
smiles,measurement,setting,value
CCSCC[C@H](N)C(=O)O [ETHIONINE],TERMINAL_BW,3 h,217.8 g
same,APTT,3 h,19.1 s
same,Bas,3 h,0%
same,Eos,3 h,1.2%
same,Fbg,3 h,211.4 mg/dL
same,Hb,3 h,13.1 g/dL
same,Ht,3 h,38.9%
same,Lym,3 h,83.4%
same,MCH,3 h,21.1 pg
same,MCHC,3 h,33.5%
same,MCV,3 h,62.9 fL
same,Mono,3 h,2.4%
same,Neu,3 h,12.2%
same,PT,3 h,12.4 s
same,Plat,3 h,120.2 x10_4/uL
same,RBC,3 h,619.2 x10_4/ul
same,Ret,3 h,6.9%
same,WBC,3 h,89.8 x10_2/uL
same,KIDNEY_L,3 h,0.9 g
same,KIDNEY_R,3 h,0.9 g
same,KIDNEY_TOTAL,3 h,1.9 g
same,LIVER,3 h,10.1 g
same,A/G,3 h,1.6
same,ALP,3 h,855.8 IU/L
same,ALT,3 h,33 IU/L
same,AST,3 h,66 IU/L
same,BUN,3 h,11.2 mg/dL
same,CRE,3 h,0.4 mg/dL
same,Ca,3 h,10.5 mg/dL
same,Cl,3 h,101.8 meq/L
same,DBIL,3 h,0.056 mg/dL
same,GLC,3 h,202.4 mg/dL
same,IP,3 h,9.7 mg/dL
same,K,3 h,4 meq/L
same,LDH,3 h,212.6 IU/L
same,Na,3 h,140.4 meq/L
same,PL,3 h,138.4 mg/dL
same,RALB,3 h,3.2 g/dL
same,TBIL,3 h,0.1 mg/dL
same,TC,3 h,77.8 mg/dL
same,TG,3 h,61.2 mg/dL
same,TP,3 h,5.2 g/dL
same,gamma-GTP,3 h,1 IU/L
same,TERMINAL_BW,6 h,214.9 g
same,APTT,6 h,19.4 s
same,Bas,6 h,0%
same,Eos,6 h,1%
same,Fbg,6 h,210.6 mg/dL
same,Hb,6 h,13.3 g/dL
same,Ht,6 h,39.1%
same,Lym,6 h,82%
same,MCH,6 h,21.4 pg
same,MCHC,6 h,33.9%
same,MCV,6 h,62.9 fL
same,Mono,6 h,2.4%
same,Neu,6 h,14%
same,PT,6 h,12.7 s
same,Plat,6 h,118.7 x10_4/uL
same,RBC,6 h,620.4 x10_4/ul
same,Ret,6 h,6.7%
same,WBC,6 h,82.3 x10_2/uL
same,KIDNEY_L,6 h,1 g
same,KIDNEY_R,6 h,1 g
same,KIDNEY_TOTAL,6 h,2 g
same,LIVER,6 h,9.3 g
same,A/G,6 h,1.6
same,ALP,6 h,885.2 IU/L
same,ALT,6 h,31.4 IU/L
same,AST,6 h,63.8 IU/L
same,BUN,6 h,9.4 mg/dL
same,CRE,6 h,0.4 mg/dL
same,Ca,6 h,10.2 mg/dL
same,Cl,6 h,102.8 meq/L
same,DBIL,6 h,0.058 mg/dL
same,GLC,6 h,191.2 mg/dL
same,IP,6 h,9.5 mg/dL
same,K,6 h,3.8 meq/L
same,LDH,6 h,224.2 IU/L
same,Na,6 h,139.6 meq/L
same,PL,6 h,126.8 mg/dL
same,RALB,6 h,3.2 g/dL
same,TBIL,6 h,0.1 mg/dL
same,TC,6 h,66.4 mg/dL
same,TG,6 h,52.6 mg/dL
same,TP,6 h,5.2 g/dL
same,gamma-GTP,6 h,1.6 IU/L
same,TERMINAL_BW,9 h,212.9 g
same,APTT,9 h,18.9 s
same,Bas,9 h,0%
same,Eos,9 h,1%
same,Fbg,9 h,228.2 mg/dL
same,Hb,9 h,13.4 g/dL
same,Ht,9 h,39.3%
same,Lym,9 h,71%
same,MCH,9 h,21.3 pg
same,MCHC,9 h,34%
same,MCV,9 h,62.6 fL
same,Mono,9 h,2.2%
same,Neu,9 h,25.4%
same,PT,9 h,12.6 s
same,Plat,9 h,125.9 x10_4/uL
same,RBC,9 h,629.2 x10_4/ul
same,Ret,9 h,6.8%
same,WBC,9 h,95.5 x10_2/uL
same,KIDNEY_L,9 h,0.9 g
same,KIDNEY_R,9 h,0.9 g
same,KIDNEY_TOTAL,9 h,1.8 g
same,LIVER,9 h,9 g
same,A/G,9 h,1.6
same,ALP,9 h,842.8 IU/L
same,ALT,9 h,33.2 IU/L
same,AST,9 h,69.6 IU/L
same,BUN,9 h,11.2 mg/dL
same,CRE,9 h,0.3 mg/dL
same,Ca,9 h,10.5 mg/dL
same,Cl,9 h,101.8 meq/L
same,DBIL,9 h,0.074 mg/dL
same,GLC,9 h,197 mg/dL
same,IP,9 h,9.6 mg/dL
same,K,9 h,3.7 meq/L
same,LDH,9 h,200.6 IU/L
same,Na,9 h,141 meq/L
same,PL,9 h,123.4 mg/dL
same,RALB,9 h,3.4 g/dL
same,TBIL,9 h,0.1 mg/dL
same,TC,9 h,63.6 mg/dL
same,TG,9 h,75.8 mg/dL
same,TP,9 h,5.6 g/dL
same,gamma-GTP,9 h,0.8 IU/L
same,TERMINAL_BW,24 h,231.8 g
same,APTT,24 h,20 s
same,Bas,24 h,0%
same,Eos,24 h,1%
same,Fbg,24 h,234 mg/dL
same,Hb,24 h,13.3 g/dL
same,Ht,24 h,38.9%
same,Lym,24 h,80%
same,MCH,24 h,21.7 pg
same,MCHC,24 h,34.2%
same,MCV,24 h,63.6 fL
same,Mono,24 h,3%
same,Neu,24 h,15.4%
same,PT,24 h,12.7 s
same,Plat,24 h,126.9 x10_4/uL
same,RBC,24 h,612 x10_4/ul
same,Ret,24 h,6.8%
same,WBC,24 h,103.2 x10_2/uL
same,KIDNEY_L,24 h,1 g
same,KIDNEY_R,24 h,1 g
same,KIDNEY_TOTAL,24 h,2 g
same,LIVER,24 h,11.1 g
same,A/G,24 h,1.6
same,ALP,24 h,978 IU/L
same,ALT,24 h,34.2 IU/L
same,AST,24 h,68 IU/L
same,BUN,24 h,14.6 mg/dL
same,CRE,24 h,0.4 mg/dL
same,Ca,24 h,10.6 mg/dL
same,Cl,24 h,102.4 meq/L
same,DBIL,24 h,0.098 mg/dL
same,GLC,24 h,209 mg/dL
same,IP,24 h,8.3 mg/dL
same,K,24 h,4 meq/L
same,LDH,24 h,230.4 IU/L
same,Na,24 h,140 meq/L
same,PL,24 h,142.8 mg/dL
same,RALB,24 h,3.5 g/dL
same,TBIL,24 h,0.1 mg/dL
same,TC,24 h,67.8 mg/dL
same,TG,24 h,122.6 mg/dL
same,TP,24 h,5.6 g/dL
same,gamma-GTP,24 h,1.4 IU/L
